Source: PubChem BioAssay AID330 (DTP/NCI, 2004)
Several values for one entry are separate records, joined by “and”; a condition that tells them apart may be missing. Equal values may be shown once. Inconclusive results and toxic doses are left out. The calls were made as follows: active = survival T/C of 150% or more; inactive = T/C below 125% in these data.

Tested on: P388 leukemia ip, CD2F1 mice, survival T/C
Assay: NCI In Vivo Anticancer Drug Screen. Data for tumor model P388 Leukemia (intraperitoneal) in CD2F1 (CDF1) mice
Settings: endpoint: median survival time, higher = longer survival
In short: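 Mice carrying the transplanted tumor received test compound or vehicle. Survival was recorded in each group, and the value is the treated-group measurement divided by that of the vehicle-treated control group.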

[1] = dose: 12.5 mg/kg/injection, schedule: Q01DX009 (ip), vehicle: saline with Tween-80
[2] = dose: 25.0 mg/kg/injection, schedule: Q01DX009 (ip), vehicle: saline with Tween-80
[3] = dose: 50.0 mg/kg/injection, schedule: Q01DX009 (ip), vehicle: saline with Tween-80
[4] = dose: 50.0 mg/kg/injection, schedule: Q01DX005 (ip), vehicle: saline with Tween-80
[5] = dose: 100.0 mg/kg/injection, schedule: Q01DX005 (ip), vehicle: saline with Tween-80
[6] = dose: 200.0 mg/kg/injection, schedule: Q01DX005 (ip), vehicle: saline with Tween-80
[7] = dose: 50.0 mg/kg/injection, schedule: Q01DX009 (ip), vehicle: saline
[8] = dose: 100.0 mg/kg/injection, schedule: Q01DX009 (ip), vehicle: saline with Tween-80
[9] = dose: 100.0 mg/kg/injection, schedule: Q01DX009 (ip), vehicle: saline
[10] = dose: 200.0 mg/kg/injection, schedule: Q01DX009 (ip), vehicle: saline with Tween-80
[11] = dose: 6.25 mg/kg/injection, schedule: Q01DX005 (ip), vehicle: saline with Tween-80
[12] = dose: 60.0 mg/kg/injection, schedule: Q01DX005 (ip), vehicle: saline with Tween-80
[13] = dose: 120.0 mg/kg/injection, schedule: Q01DX005 (ip), vehicle: saline with Tween-80

Measured: T/C

S=c1nc(N(c2ccccc2)c2ccccc2)[nH]s1
inactive: [1] 104 % of control | [2] 101 % of control | [3] 93 % of control

Nc1nnc(CCC(=O)Nc2cccc(C(F)(F)F)c2)n1N
inactive: [4] 107 % of control | [5] 105 % of control | [6] 90 % of control

Cc1cc(NS(=O)(=O)c2ccc(N=Nc3cc(N=Nc4ccc(S(=O)(=O)Nc5cc(C)nc(C)n5)cc4)c4c(NC(=O)C(Cl)Cl)cccc4c3OC(=O)C(Cl)Cl)cc2)nc(C)n1 (tested in a mixture with another compound)
inactive: [1] 113 % of control | [2] 117 % of control | [3] 106 % of control [middle of 4 runs] | [7] 108 % of control [middle of 4 runs] | [8] 99 % of control and 105 % of control and 107 % of control | [9] 111 % of control and 115 % of control and 118 % of control | [10] 91 % of control and 95 % of control | dose: 200.0 mg/kg/injection, schedule: Q01DX009 (ip), vehicle: saline 99 % of control

Cc1ccc2nc(N/N=C/c3ccccn3)cc(C)c2c1
inactive: [4] 103 % of control and 107 % of control and 111 % of control | [5] 110 % of control and 114 % of control and 115 % of control | [6] 110 % of control

CN=C(NC1CCCCC1)c1ccc(NC(=O)c2ccc(C(=O)Nc3ccc(C(=NC)NC4CCCCC4)cc3)cc2)cc1
inactive: dose: 1.5 mg/kg/injection, schedule: Q01DX005 (ip), vehicle: saline with Tween-80 100 % of control | dose: 3.0 mg/kg/injection, schedule: Q01DX005 (ip), vehicle: saline with Tween-80 100 % of control | dose: 6.0 mg/kg/injection, schedule: Q01DX005 (ip), vehicle: saline with Tween-80 112 % of control | [11] 105 % of control

C=Cc1c(C)c(OC(C)=O)cc2c1-c1ccc(OC(C)=O)c(C)c1CC2
inactive: dose: 2.25 mg/kg/injection, schedule: Q01DX009 (ip), vehicle: Klucel (hydroxypropylcellulose) (HPC) 103 % of control | dose: 4.5 mg/kg/injection, schedule: Q01DX009 (ip), vehicle: Klucel (hydroxypropylcellulose) (HPC) 100 % of control | dose: 9.0 mg/kg/injection, schedule: Q01DX009 (ip), vehicle: Klucel (hydroxypropylcellulose) (HPC) 94 % of control | dose: 18.0 mg/kg/injection, schedule: Q01DX009 (ip), vehicle: Klucel (hydroxypropylcellulose) (HPC) 100 % of control

CCOC(CCC(CO)CO)OCC
inactive: dose: 50.0 mg/kg/injection, schedule: Q01DX009 (ip), vehicle: suspension in saline 108 % of control | dose: 100.0 mg/kg/injection, schedule: Q01DX009 (ip), vehicle: suspension in saline 112 % of control | dose: 200.0 mg/kg/injection, schedule: Q01DX009 (ip), vehicle: suspension in saline 96 % of control

CCCCCCCCCCCCCC1=NCCN1CCN
inactive: dose: 6.25 mg/kg/injection, schedule: Q01DX009 (ip), vehicle: saline with Tween-80 108 % of control and 94 % of control | [1] 105 % of control and 108 % of control and 109 % of control | [2] 107 % of control and 108 % of control and 111 % of control | [3] 99 % of control and 108 % of control | [7] 96 % of control | [9] 87 % of control

O=C(O)/C=C/C(=O)OCCBr
inactive: [3] 104 % of control | dose: 50.0 mg/kg/injection, schedule: Q04DX003 (ip), vehicle: saline with Tween-80 120 % of control | [8] 100 % of control | dose: 100.0 mg/kg/injection, schedule: Q04DX003 (ip), vehicle: saline with Tween-80 120 % of control | [10] 95 % of control | dose: 200.0 mg/kg/injection, schedule: Q04DX003 (ip), vehicle: saline with Tween-80 100 % of control

O=C(c1cc(-c2ccccc2)nc2ccccc12)n1c(=O)oc(=O)c2cc([N+](=O)[O-])ccc21
inactive: dose: 50.0 mg/kg/injection, schedule: Q01DX005 (ip), vehicle: saline 97 % of control | dose: 100.0 mg/kg/injection, schedule: Q01DX005 (ip), vehicle: saline 101 % of control | dose: 200.0 mg/kg/injection, schedule: Q01DX005 (ip), vehicle: saline 99 % of control

CCN(CC)CCNc1c2ccc(Cl)cc2nc2ccc(OC)nc12
inactive: dose: 50.0 mg/kg/injection, schedule: Q01DX009 (ip), vehicle: Klucel (hydroxypropylcellulose) (HPC) 114 % of control | dose: 100.0 mg/kg/injection, schedule: Q01DX009 (ip), vehicle: Klucel (hydroxypropylcellulose) (HPC) 111 % of control | dose: 200.0 mg/kg/injection, schedule: Q01DX009 (ip), vehicle: Klucel (hydroxypropylcellulose) (HPC) 117 % of control

CN1c2ccccc2C(=O)N2C(=O)CCC21C (configuration not stated)
inactive: [12] 102 % of control | [13] 88 % of control

CC(C)=CC[P+](C)(c1ccccc1)c1ccccc1
inactive: dose: 1.56 mg/kg/injection, schedule: Q04DX003 (ip), vehicle: saline 101 % of control | dose: 3.13 mg/kg/injection, schedule: Q04DX003 (ip), vehicle: saline 100 % of control | dose: 6.25 mg/kg/injection, schedule: Q04DX003 (ip), vehicle: saline 89 % of control

O=c1[nH]c2cc(Cl)ccc2nc1/C=C(\O)c1ccc([N+](=O)[O-])cc1
inactive: dose: 60.0 mg/kg/injection, schedule: Q01DX005 (ip), vehicle: Klucel (hydroxypropylcellulose) (HPC) 101 % of control | dose: 120.0 mg/kg/injection, schedule: Q01DX005 (ip), vehicle: Klucel (hydroxypropylcellulose) (HPC) 96 % of control | dose: 240.0 mg/kg/injection, schedule: Q01DX005 (ip), vehicle: Klucel (hydroxypropylcellulose) (HPC) 89 % of control

CC1=CC(c2ccccc2)=CS(=O)(N(C)C)=C1 (configuration not stated)
inactive: dose: 60.0 mg/kg/injection, schedule: Q01DX005 (ip), vehicle: saline 100 % of control | dose: 120.0 mg/kg/injection, schedule: Q01DX005 (ip), vehicle: saline 104 % of control | dose: 240.0 mg/kg/injection, schedule: Q01DX005 (ip), vehicle: saline 104 % of control

COc1cc2c(c(C3C(=O)N(C)c4ccc(Br)cc43)c1OC)OCO2 (configuration not stated)
inactive: [12] 95 % of control | [13] 91 % of control | dose: 240.0 mg/kg/injection, schedule: Q01DX005 (ip), vehicle: saline with Tween-80 98 % of control

CN(C(=O)C1(C)OC1c1ccccc1)c1ccccc1 (configuration not stated)
inactive: dose: 100.0 mg/kg/injection, schedule: Q04DX003 (ip), vehicle: Klucel (hydroxypropylcellulose) (HPC) 96 % of control | dose: 200.0 mg/kg/injection, schedule: Q04DX003 (ip), vehicle: Klucel (hydroxypropylcellulose) (HPC) 100 % of control | dose: 400.0 mg/kg/injection, schedule: Q04DX003 (ip), vehicle: Klucel (hydroxypropylcellulose) (HPC) 94 % of control

C=C(C)C12CC(COC(=O)c3ccccc3)C34OC5(OC1C3C1OC1(COC(=O)CCCCCCCCCCCCCCC)C(O)C1(O)C(OC(=O)c3ccccc3)C(C)C(C(C)CCCCCCC5O)C14)O2 (configuration not stated)
inactive: dose: 12.5 micrograms/kg/injection, schedule: Q01DX009 (ip), vehicle: saline 103 % of control | dose: 25.0 micrograms/kg/injection, schedule: Q01DX009 (ip), vehicle: saline 103 % of control | dose: 50.0 micrograms/kg/injection, schedule: Q01DX009 (ip), vehicle: saline 99 % of control

CC(=O)CCN1C(C#N)CCCC1C#N (configuration not stated)
inactive: [11] 102 % of control | dose: 12.5 mg/kg/injection, schedule: Q01DX005 (ip), vehicle: saline with Tween-80 91 % of control | dose: 25.0 mg/kg/injection, schedule: Q01DX005 (ip), vehicle: saline with Tween-80 100 % of control

CNC(=O)n1nc(C)cc1C
inactive: dose: 50.0 mg/kg/injection, schedule: Q01DX005 (ip), vehicle: distilled water + alcohol 108 % of control | dose: 100.0 mg/kg/injection, schedule: Q01DX005 (ip), vehicle: distilled water + alcohol 102 % of control | dose: 200.0 mg/kg/injection, schedule: Q01DX005 (ip), vehicle: distilled water + alcohol 108 % of control

O=c1[nH]c(=O)n(COCc2ccccc2)cc1F
inactive: dose: 25.0 mg/kg/injection, schedule: Q04DX003 (ip), vehicle: saline 98 % of control | dose: 50.0 mg/kg/injection, schedule: Q04DX003 (ip), vehicle: saline 98 % of control | dose: 100.0 mg/kg/injection, schedule: Q04DX003 (ip), vehicle: saline 98 % of control and 97 % of control | dose: 200.0 mg/kg/injection, schedule: Q04DX003 (ip), vehicle: saline 95 % of control | dose: 400.0 mg/kg/injection, schedule: Q04DX003 (ip), vehicle: saline 98 % of control
